Experimental data published in publication PMC9829398 (Plant Biotechnology Journal, 2022).
Entries after “also recorded” stand apart in the source; their conditions may differ.

Experiments:
Ralstonia solanacearum = format: in vivo; details: Arabidopsis seedlings pretreated with 5 μM, 4 days after inoculation
FRK1 = details: 5 μM for 24 h, confocal microscopy
Meloidogyne incognita = experiment: Rice root-knot nematode disease, preventive root treatment; format: in vivo; details: roots pretreated twice with 3 mL of 5 μM, 800 pre-J2s
tobacco roots = experiment: RNA-seq of tobacco roots (DEGs, GO and KEGG classification and enrichment); format: in vivo
[1] = tested on: ROS in Col‐0 and fer‐4 roots; experiment: ROS detection in plant roots (H2DCF-DA fluorescence); details: 5 μM for 15 min, vs DMSO and lapatinib
FER‐CD = FER‐CD (Arabidopsis thaliana, UniProt Q9SCZ4); experiment: biochemical
THE1‐CD = experiment: THE1-CD kinase activity (autophosphorylation); format: biochemical, Arabidopsis thaliana; details: 5 μM
[2] = KEGG ko00040 Pentose and glucuronate interconversions
[3] = KEGG ko00052 Galactose metabolism
[4] = KEGG ko00062 Fatty acid elongation
[5] = KEGG ko00071 Fatty acid degradation
[6] = KEGG ko00073 Cutin, suberine and wax biosynthesis
[7] = KEGG ko00100 Steroid biosynthesis
[8] = KEGG ko00250 Alanine, aspartate and glutamate metabolism
[9] = KEGG ko00270 Cysteine and methionine metabolism
[10] = KEGG ko00290 Valine, leucine and isoleucine biosynthesis
[11] = KEGG ko00330 Arginine and proline metabolism
[12] = KEGG ko00350 Tyrosine metabolism
[13] = KEGG ko00360 Phenylalanine metabolism
[14] = KEGG ko00410 beta-Alanine metabolism
[15] = KEGG ko00430 Taurine and hypotaurine metabolism
[16] = KEGG ko00460 Cyanoamino acid metabolism
[17] = KEGG ko00480 Glutathione metabolism
[18] = KEGG ko00500 Starch and sucrose metabolism
[19] = KEGG ko00511 Other glycan degradation
[20] = KEGG ko00520 Amino sugar and nucleotide sugar metabolism
[21] = KEGG ko00531 Glycosaminoglycan degradation
[22] = KEGG ko00561 Glycerolipid metabolism
[23] = KEGG ko00564 Glycerophospholipid metabolism
[24] = KEGG ko00590 Arachidonic acid metabolism
[25] = KEGG ko00591 Linoleic acid metabolism
[26] = KEGG ko00592 alpha-Linolenic acid metabolism
[27] = KEGG ko00603 Glycosphingolipid biosynthesis - globo series
[28] = KEGG ko00604 Glycosphingolipid biosynthesis - ganglio series
[29] = KEGG ko00650 Butanoate metabolism
[30] = KEGG ko00730 Thiamine metabolism
[31] = KEGG ko00760 Nicotinate and nicotinamide metabolism
[32] = KEGG ko00770 Pantothenate and CoA biosynthesis
[33] = KEGG ko00904 Diterpenoid biosynthesis
[34] = KEGG ko00905 Brassinosteroid biosynthesis
[35] = KEGG ko00906 Carotenoid biosynthesis
[36] = KEGG ko00908 Zeatin biosynthesis
[37] = KEGG ko00909 Sesquiterpenoid and triterpenoid biosynthesis
[38] = KEGG ko00910 Nitrogen metabolism
[39] = KEGG ko00940 Phenylpropanoid biosynthesis
[40] = KEGG ko00941 Flavonoid biosynthesis
[41] = KEGG ko00950 Isoquinoline alkaloid biosynthesis
[42] = KEGG ko00960 Tropane, piperidine and pyridine alkaloid biosynthesis
[43] = KEGG ko00980 Metabolism of xenobiotics by cytochrome P450
[44] = KEGG ko00982 Drug metabolism - cytochrome P450
[45] = KEGG ko01040 Biosynthesis of unsaturated fatty acids
[46] = KEGG ko03320 PPAR signaling pathway
[47] = KEGG ko04010 MAPK signaling pathway
[48] = KEGG ko04011 MAPK signaling pathway - yeast
[49] = KEGG ko04020 Calcium signaling pathway
[50] = KEGG ko04022 cGMP-PKG signaling pathway
[51] = KEGG ko04075 Plant hormone signal transduction
[52] = KEGG ko04140 Regulation of autophagy
[53] = KEGG ko04211 Longevity regulating pathway
[54] = KEGG ko04212 Longevity regulating pathway - worm
[55] = KEGG ko04370 VEGF signaling pathway
[56] = KEGG ko04380 Osteoclast differentiation
[57] = KEGG ko04614 Renin-angiotensin system
[58] = KEGG ko04626 Plant-pathogen interaction
[59] = KEGG ko04650 Natural killer cell mediated cytotoxicity
[60] = KEGG ko04660 T cell receptor signaling pathway
[61] = KEGG ko04662 B cell receptor signaling pathway
[62] = KEGG ko04712 Circadian rhythm - plant
[63] = KEGG ko04720 Long-term potentiation
[64] = KEGG ko04723 Retrograde endocannabinoid signaling
[65] = KEGG ko04724 Glutamatergic synapse
[66] = KEGG ko04810 Regulation of actin cytoskeleton
[67] = KEGG ko04920 Adipocytokine signaling pathway
[68] = KEGG ko04921 Oxytocin signaling pathway
[69] = KEGG ko04922 Glucagon signaling pathway
[70] = KEGG ko04974 Protein digestion and absorption
[71] = KEGG ko04975 Fat digestion and absorption
[72] = tobacco roots, 5 μM irrigated twice, coregulated genes, vs DMSO

Sequence of FER‐CD (Q9SCZ4 469-895): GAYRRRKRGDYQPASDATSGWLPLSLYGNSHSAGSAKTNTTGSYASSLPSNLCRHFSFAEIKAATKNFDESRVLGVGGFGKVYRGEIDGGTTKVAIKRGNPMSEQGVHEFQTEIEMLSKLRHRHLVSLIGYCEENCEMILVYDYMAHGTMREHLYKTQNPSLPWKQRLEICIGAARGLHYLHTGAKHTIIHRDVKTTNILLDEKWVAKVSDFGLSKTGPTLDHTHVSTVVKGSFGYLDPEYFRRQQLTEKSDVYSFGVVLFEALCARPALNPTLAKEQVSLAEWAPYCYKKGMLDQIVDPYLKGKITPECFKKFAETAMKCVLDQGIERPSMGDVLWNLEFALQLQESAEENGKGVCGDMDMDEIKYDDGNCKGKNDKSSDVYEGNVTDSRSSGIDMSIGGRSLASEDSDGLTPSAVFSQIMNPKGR

Structure (SMILES): O=C(O)c1cc(N(Cc2ccccc2O)Cc2cc(O)ccc2O)ccc1O [Lavendustin A]
- Cotyledon bleaching caused by R. solanacearum (Ralstonia solanacearum): effectively prevented the cotyledon bleaching
- Expression of FRK1 in roots (FRK1): did not affect the expression levels
- Control of rice root-knot nematode disease (Meloidogyne incognita): better preventive effects than staurosporine; also recorded: alleviated soil‐borne diseases
- Enrichment_score (tobacco roots; [2]): 1.762
- ListHits (tobacco roots; [2]): 11
- Enrichment_score (tobacco roots; [3]): 3.118
- ListHits (tobacco roots; [3]): 9
- Enrichment_score (tobacco roots; [4]): 4.058
- ListHits (tobacco roots; [4]): 8
- Enrichment_score (tobacco roots; [5]): 0.9908
- ListHits (tobacco roots; [5]): 2
- Enrichment_score (tobacco roots; [6]): 6.683
- ListHits (tobacco roots; [6]): 16
- Enrichment_score (tobacco roots; [7]): 3.5933
- ListHits (tobacco roots; [7]): 7
- Enrichment_score (tobacco roots; [8]): 2.602
- ListHits (tobacco roots; [8]): 8
- Enrichment_score (tobacco roots; [9]): 1.358
- ListHits (tobacco roots; [9]): 8
- Enrichment_score (tobacco roots; [10]): 1.495
- ListHits (tobacco roots; [10]): 2
- Enrichment_score (tobacco roots; [11]): 2.996
- ListHits (tobacco roots; [11]): 9
- Enrichment_score (tobacco roots; [12]): 1.721
- ListHits (tobacco roots; [12]): 4
- Enrichment_score (tobacco roots; [13]): 3.551
- ListHits (tobacco roots; [13]): 8
- Enrichment_score (tobacco roots; [14]): 1.826
- ListHits (tobacco roots; [14]): 6
- Enrichment_score (tobacco roots; [15]): 1.704
- ListHits (tobacco roots; [15]): 1
- Enrichment_score (tobacco roots; [16]): 2.209
- ListHits (tobacco roots; [16]): 7
- Enrichment_score (tobacco roots; [17]): 1.785
- ListHits (tobacco roots; [17]): 8
- Enrichment_score (tobacco roots; [18]): 2.489
- ListHits (tobacco roots; [18]): 34
- Enrichment_score (tobacco roots; [19]): 1.253
- ListHits (tobacco roots; [19]): 1
- Enrichment_score (tobacco roots; [20]): 1.791
- ListHits (tobacco roots; [20]): 14
- Enrichment_score (tobacco roots; [21]): 1.152
- ListHits (tobacco roots; [21]): 1
- Enrichment_score (tobacco roots; [22]): 2.272
- ListHits (tobacco roots; [22]): 8
- Enrichment_score (tobacco roots; [23]): 1.826
- ListHits (tobacco roots; [23]): 9
- Enrichment_score (tobacco roots; [24]): 1.2911
- ListHits (tobacco roots; [24]): 1
- Enrichment_score (tobacco roots; [25]): 6.087
- ListHits (tobacco roots; [25]): 6
- Enrichment_score (tobacco roots; [26]): 4.111
- ListHits (tobacco roots; [26]): 11
- Enrichment_score (tobacco roots; [27]): 4.485
- ListHits (tobacco roots; [27]): 2
- Enrichment_score (tobacco roots; [28]): 4.734
- ListHits (tobacco roots; [28]): 1
- Enrichment_score (tobacco roots; [29]): 1.671
- ListHits (tobacco roots; [29]): 2
- Enrichment_score (tobacco roots; [30]): 1.522
- ListHits (tobacco roots; [30]): 1
- Enrichment_score (tobacco roots; [31]): 4.438
- ListHits (tobacco roots; [31]): 5
- Enrichment_score (tobacco roots; [32]): 1.397
- ListHits (tobacco roots; [32]): 2
- Enrichment_score (tobacco roots; [33]): 1.0025
- ListHits (tobacco roots; [33]): 2
- Enrichment_score (tobacco roots; [34]): 2.84
- ListHits (tobacco roots; [34]): 2
- Enrichment_score (tobacco roots; [35]): 1.079
- ListHits (tobacco roots; [35]): 2
- Enrichment_score (tobacco roots; [36]): 1.973
- ListHits (tobacco roots; [36]): 5
- Enrichment_score (tobacco roots; [37]): 1.739
- ListHits (tobacco roots; [37]): 2
- Enrichment_score (tobacco roots; [38]): 6.015
- ListHits (tobacco roots; [38]): 12
- Enrichment_score (tobacco roots; [39]): 5.314
- ListHits (tobacco roots; [39]): 58
- Enrichment_score (tobacco roots; [40]): 1.173
- ListHits (tobacco roots; [40]): 3
- Enrichment_score (tobacco roots; [41]): 2.794
- ListHits (tobacco roots; [41]): 4
- Enrichment_score (tobacco roots; [42]): 4.058
- ListHits (tobacco roots; [42]): 6
- Enrichment_score (tobacco roots; [43]): 2.166
- ListHits (tobacco roots; [43]): 6
- Enrichment_score (tobacco roots; [44]): 2.749
- ListHits (tobacco roots; [44]): 8
- Enrichment_score (tobacco roots; [45]): 1.121
- ListHits (tobacco roots; [45]): 2
- Enrichment_score (tobacco roots; KEGG ko02010 ABC transporters): 2.282
- ListHits (tobacco roots; KEGG ko02010 ABC transporters): 3
- Enrichment_score (tobacco roots; [46]): 2.72
- ListHits (tobacco roots; [46]): 3
- Enrichment_score (tobacco roots; [47]): 1.195
- ListHits (tobacco roots; [47]): 3
- Enrichment_score (tobacco roots; [48]): 1.3634
- ListHits (tobacco roots; [48]): 4
- Enrichment_score (tobacco roots; [49]): 1.535
- ListHits (tobacco roots; [49]): 4
- Enrichment_score (tobacco roots; [50]): 1.209
- ListHits (tobacco roots; [50]): 4
- Enrichment_score (tobacco roots; [51]): 1.797
- ListHits (tobacco roots; [51]): 28
- Enrichment_score (tobacco roots; [52]): 1.598
- ListHits (tobacco roots; [52]): 3
- Enrichment_score (tobacco roots; KEGG ko04146 Peroxisome): 1.462
- ListHits (tobacco roots; KEGG ko04146 Peroxisome): 7
- Enrichment_score (tobacco roots; [53]): 1.677
- ListHits (tobacco roots; [53]): 5
- Enrichment_score (tobacco roots; [54]): 1.175
- ListHits (tobacco roots; [54]): 4
- Enrichment_score (tobacco roots; KEGG ko04360 Axon guidance): 2.905
- ListHits (tobacco roots; KEGG ko04360 Axon guidance): 6
- Enrichment_score (tobacco roots; [55]): 2.242
- ListHits (tobacco roots; [55]): 3
- Enrichment_score (tobacco roots; [56]): 2.242
- ListHits (tobacco roots; [56]): 3
- Enrichment_score (tobacco roots; [57]): 9.13
- ListHits (tobacco roots; [57]): 3
- Enrichment_score (tobacco roots; [58]): 1.285
- ListHits (tobacco roots; [58]): 13
- Enrichment_score (tobacco roots; [59]): 2.412
- ListHits (tobacco roots; [59]): 3
- Enrichment_score (tobacco roots; [60]): 2.905
- ListHits (tobacco roots; [60]): 3
- Enrichment_score (tobacco roots; [61]): 2.204
- ListHits (tobacco roots; [61]): 3
- Enrichment_score (tobacco roots; [62]): 1.266
- ListHits (tobacco roots; [62]): 3
- Enrichment_score (tobacco roots; [63]): 1.66
- ListHits (tobacco roots; [63]): 3
- Enrichment_score (tobacco roots; [64]): 1.014
- ListHits (tobacco roots; [64]): 1
- Enrichment_score (tobacco roots; [65]): 1.982
- ListHits (tobacco roots; [65]): 4
- Enrichment_score (tobacco roots; KEGG ko04727 GABAergic synapse): 1.8
- ListHits (tobacco roots; KEGG ko04727 GABAergic synapse): 3
- Enrichment_score (tobacco roots; [66]): 1.244
- ListHits (tobacco roots; [66]): 4
- Enrichment_score (tobacco roots; [67]): 3.4085
- ListHits (tobacco roots; [67]): 6
- Enrichment_score (tobacco roots; [68]): 1.746
- ListHits (tobacco roots; [68]): 5
- Enrichment_score (tobacco roots; [69]): 1.2104
- ListHits (tobacco roots; [69]): 5
- Enrichment_score (tobacco roots; KEGG ko04924 Renin secretion): 2.282
- ListHits (tobacco roots; KEGG ko04924 Renin secretion): 3
- Enrichment_score (tobacco roots; [70]): 11.3617
- ListHits (tobacco roots; [70]): 4
- Enrichment_score (tobacco roots; [71]): 3.551
- ListHits (tobacco roots; [71]): 1
- Enrichment_score (tobacco roots; KEGG ko04976 Bile secretion): 2.324
- ListHits (tobacco roots; KEGG ko04976 Bile secretion): 3
- Expression levels of growth-related genes in tobacco roots (tobacco roots; RNA-seq, GO growth, vs DMSO): differentially elevated the expression levels of most growth‐related genes
- Expression levels of RBOHs, MYB44, TGA2, WRKY19, EFR, FLS2, PR1 and PDF1.4 in tobacco roots (tobacco roots; RNA-seq, vs DMSO): significantly increased the expression levels
- Antioxidant genes (GO antioxidant activity) up-regulated (tobacco roots; [72]): 60 of 61
- Immune genes (GO immune system process) up-regulated (tobacco roots; [72]): 70 of 82
- Environmental adaptation-related genes (KEGG) up-regulated (tobacco roots; tobacco roots, coregulated genes, vs DMSO): 22 of 29
- Production of ROS in Col-0 roots [1]: significantly increased the production of ROS
- Kd (FER‐CD): 2690 nM
- Inhibition rate of THE1-CD kinase activity (THE1‐CD): lower than 55%
